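GI50: concentration for 50% inhibition of growth. The concentration for full growth arrest is given as TGI.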
Assays:
Assay in all cases: DTP human tumour cell line panel, 384-well format
NCI-H226 lung = system: NCI-H226 lung
NCI-H522 lung = system: NCI-H522 lung
UACC-62 melanoma = system: UACC-62 melanoma
MDA-MB-435 melanoma = system: MDA-MB-435 melanoma
KM12 colon = system: KM12 colon
DU-145 prostate = system: DU-145 prostate
NCI-H23 lung = system: NCI-H23 lung
OVCAR-8 ovarian = system: OVCAR-8 ovarian
ACHN renal = system: ACHN renal
MALME-3M melanoma = system: MALME-3M melanoma
MOLT-4 leukemia = system: MOLT-4 leukemia
MCF7 breast = system: MCF7 breast
TK-10 renal = system: TK-10 renal
U251 glioblastoma = system: U251 glioblastoma
SW-620 colon = system: SW-620 colon
LOX IMVI melanoma = system: LOX IMVI melanoma
OVCAR-3 ovarian = system: OVCAR-3 ovarian
A498 renal = system: A498 renal
SF-295 CNS = system: SF-295 CNS
SNB-19 CNS = system: SNB-19 CNS
HT29 colon = system: HT29 colon
MDA-MB-231 breast = system: MDA-MB-231 breast
HL-60(TB) leukemia = system: HL-60(TB) leukemia
OVCAR-5 ovarian = system: OVCAR-5 ovarian
HCT-15 colon = system: HCT-15 colon
COLO 205 colon = system: COLO 205 colon
NCI-H460 NSCLC = system: NCI-H460 NSCLC
M14 melanoma = system: M14 melanoma
SK-MEL-28 melanoma = system: SK-MEL-28 melanoma
HS 578T breast = system: HS 578T breast
EKVX NSCLC = system: EKVX NSCLC
PC-3 prostate = system: PC-3 prostate
RPMI-8226 leukemia = system: RPMI-8226 leukemia
SF-539 CNS = system: SF-539 CNS
SK-MEL-5 melanoma = system: SK-MEL-5 melanoma
HCC-2998 colon = system: HCC-2998 colon
SNB-75 CNS = system: SNB-75 CNS
OVCAR-4 ovarian = system: OVCAR-4 ovarian
SN12C renal = system: SN12C renal
HOP-62 NSCLC = system: HOP-62 NSCLC
K-562 leukemia = system: K-562 leukemia
NCI/ADR-RES ovarian = system: NCI/ADR-RES ovarian
BT-549 breast = system: BT-549 breast
SR leukemia = system: SR leukemia
NCI-H322M lung = system: NCI-H322M lung
CCRF-CEM leukemia = system: CCRF-CEM leukemia
SK-OV-3 ovarian = system: SK-OV-3 ovarian
T-47D breast = system: T-47D breast
UACC-257 melanoma = system: UACC-257 melanoma
IGROV1 ovarian = system: IGROV1 ovarian
SF-268 CNS = system: SF-268 CNS
MDA-MB-468 breast = system: MDA-MB-468 breast
A549 NSCLC = system: A549 NSCLC
CAKI-1 renal = system: CAKI-1 renal
UO-31 renal = system: UO-31 renal
786-0 renal = system: 786-0 renal
RXF 393 renal = system: RXF 393 renal
HOP-92 NSCLC = system: HOP-92 NSCLC

**Q.** For `CN(C)CC(=O)N1CCC(c2ccc(NC(=O)c3ncc(C#N)[nH]3)c(C3=CCCCC3)c2)CC1`, which GI50 (NCI-H226 lung) is on record?
**A.** 3.85 µM

**Q.** And the TGI (NCI-H226 lung)?
**A.** 14.2 µM

**Q.** What about the GI50 (NCI-H522 lung) of the same molecule?
**A.** 10.6 µM

**Q.** And the TGI (NCI-H522 lung)?
**A.** 22.4 µM

**Q.** What about the GI50 (UACC-62 melanoma) of the same molecule?
**A.** 1.87 µM

**Q.** And the TGI (UACC-62 melanoma)?
**A.** 3.6 µM

**Q.** What about the GI50 (MDA-MB-435 melanoma) of the same molecule?
**A.** 3 µM

**Q.** What about the TGI (MDA-MB-435 melanoma) of the same molecule?
**A.** 9.64 µM

**Q.** And the GI50 (KM12 colon)?
**A.** 0.141 µM

**Q.** And the TGI (KM12 colon)?
**A.** 3.52 µM

**Q.** And the GI50 (DU-145 prostate)?
**A.** 10.4 µM

**Q.** And the TGI (DU-145 prostate)?
**A.** 22.2 µM

**Q.** And the GI50 (NCI-H23 lung)?
**A.** 2.93 µM

**Q.** And the TGI (NCI-H23 lung)?
**A.** 10.7 µM

**Q.** What about the GI50 (OVCAR-8 ovarian) of the same molecule?
**A.** 10.6 µM

**Q.** What about the TGI (OVCAR-8 ovarian) of the same molecule?
**A.** 22.4 µM

**Q.** What about the GI50 (ACHN renal) of the same molecule?
**A.** 7.59 µM

**Q.** And the TGI (ACHN renal)?
**A.** 20 µM

**Q.** And the GI50 (MALME-3M melanoma)?
**A.** 1.66 µM

**Q.** And the TGI (MALME-3M melanoma)?
**A.** 3.57 µM

**Q.** What about the GI50 (MOLT-4 leukemia) of the same molecule?
**A.** 2.61 µM

**Q.** What about the TGI (MOLT-4 leukemia) of the same molecule?
**A.** 7.17 µM

**Q.** And the GI50 (MCF7 breast)?
**A.** 2.72 µM

**Q.** What about the TGI (MCF7 breast) of the same molecule?
**A.** 10.7 µM

**Q.** What about the GI50 (TK-10 renal) of the same molecule?
**A.** 8.66 µM

**Q.** And the TGI (TK-10 renal)?
**A.** 20.8 µM

**Q.** And the GI50 (U251 glioblastoma)?
**A.** 5.48 µM

**Q.** What about the TGI (U251 glioblastoma) of the same molecule?
**A.** 17.6 µM

**Q.** And the GI50 (SW-620 colon)?
**A.** 10.4 µM

**Q.** And the TGI (SW-620 colon)?
**A.** 22.2 µM

**Q.** And the GI50 (LOX IMVI melanoma)?
**A.** 3.32 µM

**Q.** What about the TGI (LOX IMVI melanoma) of the same molecule?
**A.** 10.6 µM

**Q.** And the GI50 (OVCAR-3 ovarian)?
**A.** 10.6 µM

**Q.** What about the TGI (OVCAR-3 ovarian) of the same molecule?
**A.** 22.4 µM

**Q.** What about the GI50 (A498 renal) of the same molecule?
**A.** 2.04 µM

**Q.** What about the TGI (A498 renal) of the same molecule?
**A.** 3.91 µM

**Q.** What about the GI50 (SF-295 CNS) of the same molecule?
**A.** 3.47 µM

**Q.** What about the TGI (SF-295 CNS) of the same molecule?
**A.** 11.3 µM

**Q.** And the GI50 (SNB-19 CNS)?
**A.** 9.85 µM

**Q.** What about the TGI (SNB-19 CNS) of the same molecule?
**A.** 21.5 µM

**Q.** And the GI50 (HT29 colon)?
**A.** 1.71 µM

**Q.** And the TGI (HT29 colon)?
**A.** 3.26 µM

**Q.** And the GI50 (MDA-MB-231 breast)?
**A.** 6.96 µM

**Q.** What about the TGI (MDA-MB-231 breast) of the same molecule?
**A.** 19.2 µM

**Q.** What about the GI50 (HL-60(TB) leukemia) of the same molecule?
**A.** 2.06 µM

**Q.** What about the TGI (HL-60(TB) leukemia) of the same molecule?
**A.** 4.49 µM

**Q.** What about the GI50 (OVCAR-5 ovarian) of the same molecule?
**A.** 4.13 µM

**Q.** And the TGI (OVCAR-5 ovarian)?
**A.** 13.8 µM

**Q.** And the GI50 (HCT-15 colon)?
**A.** 1.82 µM

**Q.** And the TGI (HCT-15 colon)?
**A.** 3.58 µM

**Q.** And the GI50 (COLO 205 colon)?
**A.** 3.56 µM

**Q.** And the TGI (COLO 205 colon)?
**A.** 11.7 µM

**Q.** And the GI50 (NCI-H460 NSCLC)?
**A.** 5.42 µM

**Q.** What about the TGI (NCI-H460 NSCLC) of the same molecule?
**A.** 16.8 µM

**Q.** What about the GI50 (M14 melanoma) of the same molecule?
**A.** 1.89 µM

**Q.** What about the TGI (M14 melanoma) of the same molecule?
**A.** 3.71 µM

**Q.** What about the GI50 (SK-MEL-28 melanoma) of the same molecule?
**A.** 1.8 µM

**Q.** What about the TGI (SK-MEL-28 melanoma) of the same molecule?
**A.** 3.28 µM

**Q.** What about the GI50 (HS 578T breast) of the same molecule?
**A.** 2.66 µM

**Q.** And the TGI (HS 578T breast)?
**A.** 6.73 µM

**Q.** And the GI50 (EKVX NSCLC)?
**A.** 12.5 µM

**Q.** What about the TGI (EKVX NSCLC) of the same molecule?
**A.** 25 µM

**Q.** And the GI50 (PC-3 prostate)?
**A.** 5.35 µM

**Q.** What about the TGI (PC-3 prostate) of the same molecule?
**A.** 17.3 µM

**Q.** And the GI50 (RPMI-8226 leukemia)?
**A.** 4.07 µM

**Q.** And the TGI (RPMI-8226 leukemia)?
**A.** 15.3 µM

**Q.** What about the GI50 (SF-539 CNS) of the same molecule?
**A.** 3.02 µM

**Q.** And the TGI (SF-539 CNS)?
**A.** 13 µM

**Q.** What about the GI50 (SK-MEL-5 melanoma) of the same molecule?
**A.** 1.7 µM

**Q.** What about the TGI (SK-MEL-5 melanoma) of the same molecule?
**A.** 4.34 µM

**Q.** And the GI50 (HCC-2998 colon)?
**A.** 2.48 µM

**Q.** What about the TGI (HCC-2998 colon) of the same molecule?
**A.** 5.33 µM

**Q.** And the GI50 (SNB-75 CNS)?
**A.** 4.4 µM

**Q.** And the TGI (SNB-75 CNS)?
**A.** 15.6 µM

**Q.** What about the GI50 (OVCAR-4 ovarian) of the same molecule?
**A.** 15.5 µM

**Q.** And the TGI (OVCAR-4 ovarian)?
**A.** 28.9 µM

**Q.** What about the GI50 (SN12C renal) of the same molecule?
**A.** 1.51 µM

**Q.** And the TGI (SN12C renal)?
**A.** 13 µM

**Q.** And the GI50 (HOP-62 NSCLC)?
**A.** 4.18 µM

**Q.** And the TGI (HOP-62 NSCLC)?
**A.** 14.8 µM

**Q.** What about the GI50 (K-562 leukemia) of the same molecule?
**A.** 2.97 µM

**Q.** And the TGI (K-562 leukemia)?
**A.** 11.3 µM

**Q.** And the GI50 (NCI/ADR-RES ovarian)?
**A.** 15.7 µM

**Q.** What about the TGI (NCI/ADR-RES ovarian) of the same molecule?
**A.** 29.1 µM

**Q.** And the GI50 (BT-549 breast)?
**A.** 2.4 µM

**Q.** And the TGI (BT-549 breast)?
**A.** 9.81 µM

**Q.** What about the GI50 (SR leukemia) of the same molecule?
**A.** 2.44 µM

**Q.** And the TGI (SR leukemia)?
**A.** 5.54 µM

**Q.** What about the GI50 (NCI-H322M lung) of the same molecule?
**A.** 7.63 µM

**Q.** What about the TGI (NCI-H322M lung) of the same molecule?
**A.** 20.1 µM

**Q.** And the GI50 (CCRF-CEM leukemia)?
**A.** 3.27 µM

**Q.** And the TGI (CCRF-CEM leukemia)?
**A.** 10.7 µM

**Q.** What about the GI50 (SK-OV-3 ovarian) of the same molecule?
**A.** 3.62 µM

**Q.** What about the TGI (SK-OV-3 ovarian) of the same molecule?
**A.** 13.3 µM

**Q.** And the GI50 (T-47D breast)?
**A.** 12.1 µM

**Q.** And the TGI (T-47D breast)?
**A.** 24.5 µM

**Q.** And the GI50 (UACC-257 melanoma)?
**A.** 1.98 µM

**Q.** And the TGI (UACC-257 melanoma)?
**A.** 3.52 µM

**Q.** What about the GI50 (IGROV1 ovarian) of the same molecule?
**A.** 10.3 µM

**Q.** What about the TGI (IGROV1 ovarian) of the same molecule?
**A.** 22 µM

**Q.** And the GI50 (SF-268 CNS)?
**A.** 6.84 µM

**Q.** What about the TGI (SF-268 CNS) of the same molecule?
**A.** 19.4 µM

**Q.** And the GI50 (MDA-MB-468 breast)?
**A.** 4.3 µM

**Q.** What about the TGI (MDA-MB-468 breast) of the same molecule?
**A.** 9.35 µM

**Q.** And the GI50 (A549 NSCLC)?
**A.** 4.25 µM

**Q.** And the TGI (A549 NSCLC)?
**A.** 14.8 µM

**Q.** What about the GI50 (CAKI-1 renal) of the same molecule?
**A.** 4.11 µM

**Q.** What about the TGI (CAKI-1 renal) of the same molecule?
**A.** 14.9 µM

**Q.** And the GI50 (UO-31 renal)?
**A.** 12.1 µM

**Q.** And the TGI (UO-31 renal)?
**A.** 24.7 µM

**Q.** And the GI50 ([…]-0 renal)?
**A.** 1.93 µM

**Q.** What about the TGI (786-0 renal) of the same molecule?
**A.** 4.41 µM

**Q.** What about the GI50 (RXF 393 renal) of the same molecule?
**A.** 5.03 µM

**Q.** And the TGI (RXF 393 renal)?
**A.** 17.2 µM

**Q.** And the GI50 (HOP-92 NSCLC)?
**A.** 1.43 µM

**Q.** And the TGI (HOP-92 NSCLC)?
**A.** 10.8 µM

— PubChem BioAssay (NCI)
